Laboratory results published in publication PMC3006138, “Fexinidazole – A New Oral Nitroimidazole Drug Candidate Entering Clinical Development for the Treatment of Sleeping Sickness” (PLoS Neglected Tropical Diseases, 2010).
Several values for one entry are separate records, joined by “and”; a condition that tells them apart may be missing. Identical values can stand only once.

Legend:
Salmonella typhimurium = system: Salmonella typhimurium; set-up: method as in ref 58 (Suter et al.); settings: standard strains, ref 58 (Suter et al.); cited from earlier work
jejunum or liver = settings: rat, in vivo; cited from earlier work
rat liver DNA = settings: in vivo; cited from earlier work
colon or liver = settings: mouse, in vivo; cited from earlier work
[1] = system: MDR1 (human, transfected); test: MDR1-MDCK permeability; settings: dog, MDCK-MDR1
Method: (§1) Caco-2 [36] or MDR1-MDCK (Madin Darby canine kidney cells transfected with the human multidrug resistance MDR1 gene) cell monolayers were grown to confluence on collagen-coated, microporous, polycarbonate membranes in 12-well microtitre plates. The buffer for the donor chamber was Hanks balanced salt solution with 10 mM HEPES and 15 mM glucose at pH 7.4. The buffer in the receiver chamber contained the same with the addition of 1% bovine serum albumin (BSA). The test article was added at 5 µM in the assay buffer. […] After 2 h, duplicate aliquots were taken from the donor and receiver chambers and assayed via LC/MS. The apparent permeability and recovery were calculated using standard methods.
(§2) The objective of this study was to determine the bi-directional MDR1-MDCK permeability and efflux limited absor ption potential of thr ee test compounds. […]
(§3) 4. Th e buff er in th e r ecei ver cha m ber a l so con t a in ed 1% Bovi n e Ser um Al bumin ( BSA) . Th e test compound dosing concentrations were 5 µM in th e a ssay bu f fer . […] After two hours, a l iquot s wer e t a ken fr om th e r ecei ver an d don or cha m ber s. E a ch det erm ina ti on wa s per for m ed in dupl i cat e. Th e Lucifer Yellow flux was also measur ed for each mon olayer after bein g subjected to th e test compoun ds to en sur e n o damage was in flicted to th e cell mon olayer s durin g th e flux per iod. All samples wer e assayed by LC/MS/MS usin g electrospray ionization. Analytical conditions are outlined in Attachment I. The apparent permeability, Papp, and per cen t r ecover y wer e calculated as follows: […]
(§4) dCr /dt is th e slope of th e cumulative con cen tration in th e r eceiver compartment ver sus time in µM s -1. […]

human MDR1 = test: MDR1-MDCK permeability; settings: dog, MDCK-MDR1
Method: as §1, §2, §3, §4

Caco-2 permeability = settings: human, Caco-2
Method: as §1
(§5) The objective of this study was to determine the bi-directional Caco-2 permeability and efflux limited absorption poten tial of thr ee test compoun ds. […]
(§6) 4 . […] Th e test compound dosing concentrations were 5 µM in th e a ssay bu f fer . […] After two hours, a l iquot s wer e t a ken fr om th e r ecei ver an d don or cha m ber s. E a ch det erm ina ti on wa s per for m ed in dupl i cat e. Th e Lucifer Yellow flux was also measur ed for each mon olayer after bein g subjected to th e test compoun ds to en sur e n o damage was in flicted to th e cell mon olayer s durin g th e flux per iod. All samples wer e assayed by LC/MS/MS usin g electrospray ionization. Analytical conditions are outlined in Attachment I. The apparent permeability, Papp, and per cen t r ecover y wer e calculated as follows:
(§7) Papp = (dCr /dt) x Vr/(AxC) (1)
(§8) P er cen t Rec o ver y = 1 0 0 x ( ( V r x C rfi n a l ) + (Vd x Cd fi n a l ))/(Vd x C N) (2) […]
as §4

T. b. brucei GVR35 [2] = test: Chronic (stage 2) infection mouse model; assay type: in vivo; settings: 40 mg/kg×1 ip, day 21
T. b. brucei GVR35 [3] = test: Chronic (stage 2) infection mouse model; assay type: in vivo
Method: (§9) Female NMRI mice were infected via intraperitoneal injection with bloodstream forms of T. b. rhodesiense STIB900 or T. b. gambiense 130R and treated with test drugs daily for 4 consecutive days, starting on day 3 or 7 after infection, respectively, or with bloodstream forms of T. b brucei GVR35 and treated daily from day 21 after infection for 5 days. Parasitemia was evaluated by tail blood examination and surviving, aparasitaemic mice at 60, 90, or 180 days, respectively, were considered cured.

[4] = stage 2 HAT patients; cited from earlier work
[5] = system: T. b. gambiense (STIB 930); test: In vitro trypanocidal assay (Alamar Blue); assay type: cell-based, Trypanosoma brucei gambiense; settings: Trypanosoma brucei, 72 h
Method: Parasites were cultured with or without the test article at a concentration of 3×10^4/mL in Minimal Essential Medium, according to Baltz et al., with the following modifications: 0.2 mM 2-mercaptoethanol, 1 mM Na-pyruvate, 0.5 mM hypoxanthine and 15% heat inactivated horse serum at 37°C in 5% CO2 in 96-well microtitre plates for 72 h. 10 µL of Alamar Blue was added for the final 3 h to determine viability. The assay was assessed by reading the fluorescence in each well at an excitation wavelength of 536 nm and at an emission wavelength of 588 nm. The IC50 values were calculated from the sigmoidal inhibition curves. For cytotoxicity, 4×10^4/mL L-6 rat skeletal myoblast cells were used, and incubations and assessments carried out as above.

[6] = system: T. b. rhodesiense (STIB 900); test: In vitro trypanocidal assay (Alamar Blue); assay type: cell-based, Trypanosoma brucei rhodesiense; settings: Trypanosoma brucei, 72 h
Method: (§10) 10 µL of Alamar Blue was added for the final 3 h to determine viability. […] The IC50 values were calculated from the sigmoidal inhibition curves. For cytotoxicity, 4×10^4/mL L-6 rat skeletal myoblast cells were used, and incubations and assessments carried out as above.

L-6 rat myoblast cells = test: Cytotoxicity assay; assay type: cell-based; settings: 72 h
Method: as §10

T. b. gambiense 130R = test: Acute infection mouse model; assay type: in vivo; settings: 4 mg/kg×4 days ip
Method: as §9

[7] = system: MDR1-MDCK cell monolayers; test: MDR1-MDCK permeability; settings: plate certification
Method: as §1, §2, §3, §4

Caco-2 cell monolayers = test: in vitro; settings: Caco-2
Method: as §1, §5, §6, §7, §8, §4

[8] = 15 mg/kg×5 days ip, separate experiment

## O=c1[nH]c2cc([N+](=O)[O-])cc(CNCP(=O)(O)O)c2[nH]c1=O [AMP397]
Salmonella typhimurium
  bacterial mutagenicity: positive Ames test results
Jejunum or liver
  genetic damage in jejunum or liver: did not detect any genetic damage
Rat liver DNA
  DNA binding in rat liver: failed to show any DNA binding
Colon or liver
  mutagenicity in colon or liver: No evidence of mutagenicity

## C[C@H]1O[C@@H](O[C@H]2[C@@H](O)C[C@H](O[C@H]3[C@@H](O)C[C@H](O[C@H]4CC[C@@]5(C)[C@H](CC[C@@H]6[C@@H]5C[C@@H](O)[C@]5(C)[C@@H](C7=CC(=O)OC7)CC[C@]65O)C4)O[C@@H]3C)O[C@@H]2C)C[C@H](O)[C@@H]1O [Digoxin, reference compound]
[1]
  efflux ratio: 68.8
Human MDR1
  Papp A→B: 0.13 ×10⁻⁶ cm/s
  Papp B→A: 8.83 ×10⁻⁶ cm/s
Caco-2 permeability
  Papp A→B: 0.53 ×10⁻⁶ cm/s
  Papp B→A: 10.4 ×10⁻⁶ cm/s
  efflux ratio: 19.6

## N=C(N)c1ccc(/N=N/Nc2ccc(C(=N)N)cc2)cc1 [Diminazene, Diminazine diaceturate]
T. b. brucei GVR35 [2]
  Cured/infected: 0/4
  Mean relapse time: 48.6 days

## Nc1nc(N)nc(Nc2ccc([As]3SCC(CO)S3)cc2)n1 (stereo not shown) [Melarsoprol, reference compound]
T. b. brucei GVR35 [3]; 10 mg/kg×5 days ip
  Cured/infected: 2/8
  Mean relapse time: >96.6 days
T. b. brucei GVR35 [3]; [8]
  Cured/infected: 4/5
  Mean relapse time: >180 days
T. b. brucei GVR35 [3]; five daily ip injections of 15 mg/kg
  cure: 100%
[4]
  treatment-related mortality: ~5%
[5]
  IC50: 0.0015 µg/mL to 0.003 µg/mL and 4 nM to 6 nM
[6]
  IC50: 4 to 9 nM
L-6 rat myoblast cells
  IC50: 1.3 µg/mL and 3.3 µM
T. b. gambiense 130R
  Cured/infected: 4/4
  Mean relapse time: >90 days

## Lucifer Yellow [reference compound]
[7]
  Papp: 0.12 10-6 cm/s
Caco-2 cell monolayers
  Papp: 0.23 10-6 cm/s
